Measurements reported in article PMC10045663, “Synthesis, In Vitro Biological Evaluation of Antiproliferative and Neuroprotective Effects and In Silico Studies of Novel 16E-Arylidene-5α,6α-epoxyepiandrosterone Derivatives” (Biomedicines, 2023).

What was measured:
N27 cells [1] = test: N27 cell viability after 24 h (MTT), substance alone; assay type: cell-based, rat
Description: The immortalized rat mesencephalic dopaminergic cell line (N27 cells; a kind gift from Dr. Yoon-Seong Kim, Burnett School of Biomedical Sciences, University of Central Florida) was grown in Roswell Park Memorial Institute (RPMI) 1640 medium (Sigma-Aldrich) containing 2 g/L sodium bicarbonate, 10% fetal bovine serum (FBS; Millipore), and 1 mL/L of penicillin/streptomycin (GIBCO) in a humidified atmosphere of 5% CO2 at 37 °C. Cells were plated at a density of 0.31 × 10^5 cells per cm^2 in 96-well culture plates. […] To assess cell viability, MTT reduction was performed as previously described (Section 2.3) with some modifications. Briefly, after 24 h of cell treatments, 0.5 mg/mL of MTT was added to cells for 4 h at 37 °C. Then, the resultant precipitate was dissolved in 10% SDS and quantified at a wavelength of 570 nm.

[2] = system: NHDF cells (normal human dermal fibroblasts); test: MTT cell proliferation assay, NHDF cells; assay type: cell-based; settings: 72 h, non-tumoral cells, read-out: Estimated IC50, NHDF
Description: (§1) LNCaP, PC-3, MCF-7, PNT1A, N27, and NHDF cells were obtained from the American Type Culture Collection (ATCC; Manassas, VA, USA) and were cultured in 75 cm^2 culture flasks at 37 °C in a humidified air incubator with 5% CO2. LNCaP, PC-3, PNT1A, and N27 cells, respectively, were cultured in RPMI 1640 medium (Sigma-Aldrich, Inc. St. Louis, MO, USA) with 10% fetal bovine serum (FBS; Sigma-Aldrich, Inc. St. Louis, MO, USA) and 1% of the antibiotic mixture of 10,000 U/mL penicillin G and […] streptomycin (Sp, Sigma-Aldrich, Inc. St. Louis, MO, USA). MCF-7 cells were cultured in DMEM medium (Sigma-Aldrich, Inc. St. Louis, MO, USA) supplemented with 10% fetal bovine serum (FBS; Sigma-Aldrich, Inc. St. Louis, MO, USA) and 1% antibiotic/antimycotic (10,000 U/mL penicillin G, […] streptomycin, and 25 µg/mL amphotericin B: Ab, Sigma-Aldrich, Inc. St. Louis, MO, USA). Finally, NHDF cells were cultured in RPMI 1640 medium supplemented with 10% FBS, 2 mM L-glutamine, 10 mM HEPES, 1 mM sodium pyruvate, and 1% of the antibiotic/antimycotic Ab, and these cells were used in passages 10th to 14th. For all cell types, the medium was renewed every 2 days until cells nearly reached the confluence state. When cells reach approximately 90–95% confluence, they are gently detached by trypsinization (trypsin-EDTA solution: 0.125 g/L of trypsin and 0.02 g/L of EDTA). Before each experiment, viable cells were counted in a Neubauer chamber by a trypan-blue exclusion assay and adequately diluted in the appropriate complete cell culture medium.
(§2) All tested compounds were dissolved in dimethyl sulfoxide (DMSO; Sigma-Aldrich, Inc. St. Louis, MO, USA) at a concentration of 10 mM and stored at 4 °C. From the mother-solutions, the diluted solutions of the compounds, in different concentrations, were prepared in the respective complete culture medium before each experiment.
(§3) After reaching a confluence state, cells were trypsinized and counted by the trypan-blue exclusion assay and then seeded with an initial density of 2 × 10^4 cells/mL in 96-well culture plates (Nunc, Apogent, Denmark) and left to adhere and grow for 48 h. Subsequently, the medium was removed, and the cells were treated with compound solutions (10 and 50 µM for preliminary studies and 0.01, 0.1, 1, 10, 50, and 100 µM for concentration-response studies) in complete culture medium for 72 h. 5-Fluorouracil (5-FU) was used as a positive control, and untreated cells were used as the negative control. Compounds leading to cell proliferation relative to control clearly below 50%, at 10 µM, or clearly below 25%, at 50 µM, in the screening studies were selected to concentration-response studies in tumoral cell lines. Each experiment was performed in quadruplicate and independently at least two times. The in vitro antiproliferative effects were evaluated by the MTT assay (Sigma-Aldrich, Inc. St. Louis, MO, USA). After the incubation period, the medium was removed, and 100 µL of phosphate buffer saline (PBS, NaCl 137 mM; KCl 2.7 mM; Na2HPO4 10 mM; and KH2PO4 1.8 mM in deionized water with a pH adjusted to 7.4) were used to wash the cells. Then, 100 µL of the MTT solution (5 mg/mL) was prepared in the appropriate serum-free medium and added to each well, followed by incubation for 4 h at 37 °C. Hereafter, the MTT containing medium was removed, and the formazan crystals were dissolved in DMSO. Then, the absorbance was measured at 570 nm using a xMarkTM microplate spectrophotometer from BIO-RAD Laboratories. Cell viability values were expressed as percentages relative to the negative control.

[3] = system: PC-3 cells (androgen-independent prostatic cancer); test: MTT cell proliferation assay, PC-3 cells; assay type: cell-based; settings: 72 h; for IC50: MTT, tumoral cells, read-out: Estimated IC50, PC-3; for decrease on cell proliferation relative to the control: PC-3, 50 µM
Description: as §1, §2, §3

[4] = system: N27 (rat dopaminergic neuronal cells); test: MTT cell proliferation assay, N27 cells; assay type: cell-based; settings: 72 h, non-tumoral cells, read-out: Estimated IC50, N27
Description: as §1, §2, §3

[5] = system: PNT1A (normal prostate cells); test: MTT cell proliferation assay, PNT1A cells; assay type: cell-based; settings: 72 h, non-tumoral cells, read-out: Estimated IC50, PNT1A
Description: as §1, §2, §3

[6] = system: MCF-7 cells (estrogen-responsive breast cancer cells); test: MTT cell proliferation assay, MCF-7 cells; assay type: cell-based; settings: 72 h; for IC50: MTT, tumoral cells, read-out: Estimated IC50, MCF-7
Description: as §1, §2, §3

[7] = system: LNCaP cells (androgen-dependent prostatic cancer); test: MTT cell proliferation assay, LNCaP cells; assay type: cell-based; settings: 72 h; for effect on LNCaP cell proliferation: 10 µM; for decrease in LNCaP cell proliferation: 50 µM; for IC50: MTT, tumoral cells, read-out: Estimated IC50, LNCaP
Description: as §1, §2, §3

[8] = system: all cell lines (NHDF, PNT1A, N27, LNCaP, PC-3, MCF-7); test: MTT preliminary screening, all cell lines taken together; assay type: cell-based; settings: 50 µM, 72 h
Description: as §1, §2, §3

N27 cells [9] = test: Neuroprotection against 6-OHDA-induced toxicity (MTT); assay type: cell-based, rat; settings: 10 and 50 µM together with 50 µM 6-OHDA, 24 h
Description: The immortalized rat mesencephalic dopaminergic cell line (N27 cells; a kind gift from Dr. Yoon-Seong Kim, Burnett School of Biomedical Sciences, University of Central Florida) was grown in Roswell Park Memorial Institute (RPMI) 1640 medium (Sigma-Aldrich) containing 2 g/L sodium bicarbonate, 10% fetal bovine serum (FBS; Millipore), and 1 mL/L of penicillin/streptomycin (GIBCO) in a humidified atmosphere of 5% CO2 at 37 °C. Cells were plated at a density of 0.31 × 10^5 cells per cm^2 in 96-well culture plates. In the MTT assay, N27 cells were incubated in the presence of several compounds with 50 μM of 6-OHDA. To assess cell viability, MTT reduction was performed as previously described (Section 2.3) with some modifications. Briefly, after 24 h of cell treatments, 0.5 mg/mL of MTT was added to cells for 4 h at 37 °C. Then, the resultant precipitate was dissolved in 10% SDS and quantified at a wavelength of 570 nm.

## NCCc1cc(O)c(O)cc1O [Compound 6-OHDA, 6-hydroxydopamine, reference compound]
N27 cells [1]; 50 μM
  reduction in cell viability compared to the control: ~50%

## COc1ccc(C=C2CC3C4CC5OC56CC(O)CCC6(C)C4CCC3(C)C2=O)cc1 (stereo not drawn) [Compound 16, (E)-16-(4-Metoxybenzylidene)-3-hydroxy-5α ,6α -epoxy-10,13-dimethyl-1,3,4,7,8,9,10,11,12,13,15,16-dodecahydro-2H-cyclopenta[α ]phenanthren-17(14H)-one]
[2]
  IC50: 39.3 µM
[3]
  IC50: 20.1 µM
[4]
  IC50: 33.2 µM
[5]
  IC50: 54.5 µM

## CC12CCC3C(CC4OC45CC(O)CCC35C)C1CC(=Cc1cccs1)C2=O (stereo not drawn) [Compound 18, (E)-16-(Thiophen-2-ylmethylene)-3-hydroxy-5α ,6α -epoxy-10,13-dimethyl-1,3,4,7,8,9,10,11,12,13,15,16-dodecahydro-2H-cyclopenta[α ]phenanthren-17(14H)-one]
[2]
  IC50: 29.7 µM
[3]
  IC50: 37.6 µM
[4]
  IC50: 12.6 µM
[5]
  IC50: 29.6 µM

## Cc1ccc(/C=C2\C[C@H]3[C@@H]4C[C@@H]5O[C@@]56CC(O)CC[C@]6(C)[C@H]4CC[C@]3(C)C2=O)o1 (stereo partly drawn) [Compound 21, (E)-16-[(5-Methylfuran-2-yl)methylene]-3-hydroxy-5α ,6α -epoxy-10,13-dimethyl-1,3,4,7,8,9,10,11,12,13,15,16-dodecahydro-2H-cyclopenta[α ]phenanthren-17(14H)-one]
[2]
  IC50: 23.4 µM
[4]
  IC50: 13.2 µM
[5]
  IC50: 46.3 µM

## Cc1ccc(C=C2CC3C4CC5OC56CC(O)CCC6(C)C4CCC3(C)C2=O)cc1 (stereo not drawn) [Compound 23, (E)-16-(4-Methylbenzylidene)-3-hydroxy-5α ,6α -epoxy-10,13-dimethyl-1,3,4,7,8,9,10,11,12,13,15,16-dodecahydro-2H-cyclopenta[α ]phenanthren-17(14H)-one]
[2]
  IC50: 28.3 µM
[3]
  IC50: 14 µM
[4]
  IC50: 12.7 µM
[6]
  IC50: 18.7 µM
[5]
  IC50: 13.3 µM
[7]
  effect on LNCaP cell proliferation: no relevant effects
  decrease in LNCaP cell proliferation: higher than 75%
  IC50: 19.3 µM
[8]
  relative cell proliferation: ≤ 50%

## C[C@]12CC[C@H]3[C@@H](C[C@@H]4O[C@@]45CC(O)CC[C@]35C)[C@@H]1C/C(=C\c1cccc(F)c1F)C2=O (stereo partly drawn) [Compound 24, (E)-16-(2,3-Difluorobenzylidene)-3-hydroxy-5α ,6α -epoxy-10,13-dimethyl-1,3,4,7,8,9,10,11,12,13,15,16-dodecahydro-2H-cyclopenta[α ]phenanthren-17(14H)-one]
[2]
  IC50: 33.4 µM
[4]
  IC50: 18.9 µM
[5]
  IC50: 56.5 µM

## CC12CCC3C(CC4OC45CC(O)CCC35C)C1CC(=Cc1ccc(Br)cc1)C2=O (stereo not drawn) [Compound 25, (E)-16-(4-Bromobenzylidene)-3-hydroxy-5α ,6α -epoxy-10,13-dimethyl-1,3,4,7,8,9,10,11,12,13,15,16-dodecahydro-2H-cyclopenta[α ]phenanthren-17(14H)-one]
[2]
  IC50: 16 µM
[3]
  IC50: 14.5 µM
  decrease on cell proliferation relative to the control: higher than 75%
[4]
  IC50: 15.4 µM
[6]
  IC50: 14.5 µM
[5]
  IC50: 15.3 µM
[7]
  effect on LNCaP cell proliferation: no relevant effects
  decrease in LNCaP cell proliferation: higher than 75%
  IC50: 36.9 µM
[8]
  relative cell proliferation: ≤ 50%

## CC12CCC3C(CC4OC45CC(O)CCC35C)C1CCC2C(=O)C=Cc1ccccc1 (stereo not drawn) [cD, 21E-benzylidene-5α,6α-epoxipregnenolone, reference compound]
N27 cells [9]
  protection against 6-OHDA-induced neurotoxicity: did not protect
N27 cells [1]; 10 µM alone
  effect on N27 cell viability: did not affect cell viability

## (E)-16-(2,4-Dichlorobenzylidene)-3-hydroxy-5α ,6α -epoxy-10,13-dimethyl-1,3,4,7,8,9,10,11,12,13,15,16-dodecahydro-2H-cyclopenta[α ]phenanthren-17(14H)-one [Compound 22]
[2]
  IC50: 15 µM
[3]
  IC50: 44.5 µM
  decrease on cell proliferation relative to the control: higher than 75%
[4]
  IC50: 16.8 µM
[6]; MCF-7, 50 µM
  cell proliferation relative to the control: ~0%
[6]
  IC50: 14.5 µM
[5]
  IC50: 14.4 µM
[7]
  effect on LNCaP cell proliferation: no relevant effects
  decrease in LNCaP cell proliferation: higher than 75%
  IC50: 15 µM
[8]
  relative cell proliferation: ≤ 50%

## (E)-16-Benzylidene-3-hydroxy-5α,6α-epoxy-10,13-dimethyl-1,3,4,7,8,9,10,11,12,13,15,16-dodecahydro-2H-cyclopenta[α]phenanthrene-17(14H)-one [Compound 15]
[2]
  IC50: 39.5 µM
[3]
  IC50: 17 µM
  decrease on cell proliferation relative to the control: higher than 75%
[4]
  IC50: 9.21 µM
[6]
  IC50: 42.7 µM
[5]
  IC50: 33.1 µM
[7]
  IC50: 27.4 µM
[8]
  relative cell proliferation: ≤ 50%

## (E)-16-[(5-Chlorothiophen-2-yl)methylene]-3-hydroxy-5α ,6α -epoxy-10,13-dimethyl-1,3,4,7,8,9,10,11,12,13,15,16-dodecahydro-2H-cyclopenta[α ]phenanthren-17(14H)-one [Compound 26]
[2]
  IC50: 16.6 µM
[3]
  IC50: 43.8 µM
  decrease on cell proliferation relative to the control: higher than 75%
[4]
  IC50: 14.3 µM
[6]
  IC50: 21.8 µM
[5]
  IC50: 15.6 µM
[7]
  effect on LNCaP cell proliferation: no relevant effects
  decrease in LNCaP cell proliferation: higher than 75%
  IC50: 11.3 µM
[8]
  relative cell proliferation: ≤ 50%
